Measurements from patent publication US6258790A, “Antisense modulation of integrin α4 expression” (Isis Pharmaceuticals, Inc., priority 1999, dated 2001).

System: human integrin α4
Experiment: Inhibition of human integrin α4 protein levels by antisense oligonucleotides (LIPOFECTIN, flow cytometry with CD49d-FITC) in A375 melanoma cells
Assay type: cell-based
Set-up: % Inhib.: tested at 200 nM
Excerpt: Integrin α4 protein levels can be quantitated in a variety of ways well known in the art, such as immunoprecipitation, Western blot analysis (immunoblotting), ELISA or fluorescence-activated cell sorting (FACS). Antibodies directed to integrin α4 can be identified and obtained from a variety of sources, such as the MSRS catalog of antibodies (Aerie Corporation, Birmingham, Mich.), or can be prepared via conventional antibody generation methods.
Target sites are indicated by nucleotide numbers, as given in the sequence source reference (GenBank accession no. L12002), to which the oligonucleotide binds. All compounds in Table 1 are 18 nucleotides in length, with a phosphorothioate backbone and a centered 10-base deoxynucleotide gap flanked by 2'-methoxyethoxy (2'MOE) wings. Human A375 melanoma cells (American Type Culture Collection, Manassas, Va.) were plated at 2000 cells/cm^2 two days before oligonucleotide treatment. Cells were treated with oligonucleotides at a dose of 200 nM oligonucleotide and 6 ug/ml LIPOFECTIN for four hours. Cells were incubated overnight and harvested with 2 mM EDTA in PBS. Cells were washed in 2% bovine serum albumin, 0.2% sodium azide in D-PBS at 4° C. Cells were centrifuged at 200×g, and the supernatant was decanted. […] Antibodies were incubated with the cells for 30 minutes at 4° C. in the dark, under gentle agitation. Cells were washed again as above and then resuspended in 0.3 ml of FacsFlow buffer with 0.5% formaldehyde. Cells were analyzed on Becton Dickinson FACScan. Results are expressed as percentage of control expression based on mean fluorescence intensity.
Cells were harvested with trypsin at 48 and 72 hours after oligonucleotide treatment and stained with 2 ug/ml CD49d-FITC as in the previous example.
Where backbones are mixed, linkages are shown as "s" for phosphorothioate (P=S or PS) and "o" for phosphodiester (P=O or PO). Where target region is indicated as `M62841,` oligonucleotides are targeted to the promotor region whose sequence is described in GenBank Accession No. M62841. Remaining oligonucleotides are targeted to the sequence described in Genbank Accession No. L12002 and their target sites on the L12002 sequence are indicated.
Target sites refer to nucleotide numbers on the target sequence (GenBank Accession No. L12002) to which the oligonucleotides hybridize.
Oligonucleotides were synthesized as "gapmers" consisting of a 9-nucleotide region of deoxynucleotides flanked by three 2'-O-methoxyethyl(2'-MOE) nucleotides on the 5' end and eight 2'-MOE nucleotides on the 3' end. 2'-MOE nucleotides are shown in bold in the table. Oligonucleotides were synthesized with phosphorothioate backbones throughout, and all cytosines are 5-methylcytosines.

[1] = Table 24, A375 cells, lipofectin, as Example 8

With “26643 (TTGCCCTTATATGAGAAACA; phosphorothioate, 2'-MOE, 5-methyl-C, further chemistry not given here) [compound 26643]” the “% Control” value (Table 4, 10 nM) was 90%, the “% Inhib.” value (Table 4, 10 nM) was 10% and the “% Control” value (Table 4, 30 nM) was 95%. For the same substance, the “% Control” value (Table 4, 100 nM) was 93%, the “% Control” value (Table 4, 300 nM) was 66% and the “% Inhib.” value (Table 4, 300 nM (highest dose)) was 34%.

With “26644 (TTTCCATTCTCTCAATTTGA; phosphorothioate, 2'-MOE/deoxy, further chemistry not given here) [compound 26644]” the “inhibition (Example 11)” value (Example 11 assay, dose not stated) was ≥ 40%, the “% Control” value (Table 6, 10 nM) was 99% and the “% Control” value (Table 6, 30 nM) was 94%. For the same substance, the “% Control” value (Table 6, 100 nM) was 78%, the “% Inhib.” value (Table 6, 100 nM) was 22% and the “% Control” value (Table 6, 300 nM) was 48%. The “% Inhib.” value (Table 6, 300 nM (highest dose)) was 52%.

“100025 (antisense CCCAGCACATCGGCTCTCGG; chemistry not given here) [compound 100025]” was tested, and the “% Control” value [1] was 97% and the “% Inhib.” value [1] was 3%.

In the case of “107229 (antisense AGTCCGCAGAGCGCGGGATG; chemistry not given here) [compound 107229]”, the “% Control” value [1] is reported as 104%.

For “107230 (antisense AGACTCGCGTCCTGGCCCGG; chemistry not given here) [compound 107230]”, the “% Control” value [1] was 73% and the “% Inhib.” value [1] was 27%.

For “107231 (antisense GTGCGGAGGCGCAGGGCCGG; chemistry not given here) [compound 107231]”, the “% Control” value [1] was 115%.

For “107232 (antisense CCGGTTTCTGCCGCCGAGCC; chemistry not given here) [compound 107232]”, the “% Control” value [1] was 83% and the “% Inhib.” value [1] was 17%.

For “107233 (antisense ATGCGACGGTTGGCCAACGG; chemistry not given here) [compound 107233]”, the “% Control” value [1] was 57% and the “% Inhib.” value [1] was 43%.

“107234 (antisense CTTCCCAAGCCATGCGCTCT; chemistry not given here) [compound 107234]” was tested, and the “% Control” value [1] was 47%.

“107235 (antisense TCGCTTCCCAAGCCATGCGC; chemistry not given here) [compound 107235]” was tested, and the “% Control” value [1] was 36%.

For “107236 (antisense GCCTCGCTTCCCAAGCCATG; chemistry not given here) [compound 107236]”, the “% Control” value [1] was 43%.

With “107237 (antisense CGCGCCTCGCTTCCCAAGCC; chemistry not given here) [compound 107237]” the “% Control” value [1] was 46%.

In the case of “107238 (antisense TCCTTGCCCTTATATGAGAA; chemistry not given here) [compound 107238]”, the “% Control” value [1] is reported as 49%.

In the case of “107239 (antisense ACTTCCTTGCCCTTATATGA; chemistry not given here) [compound 107239]”, the “% Control” value [1] is reported as 29%.
